This experiment deals with Interleukin 8 (IL-8). In words: Human clinical trial in COPD patients: IL-8 level in induced sputum supernatant (enzyme immunoassay). The format is in vivo. Here is the method: A human clinical trial (trial) was conducted to investigate effects of the disodium salt of compound of formula (I) (1,6-Bis [3-(3-carboxymethylphenyl)-4-(2-α-D-mannopyranosyloxy)-phenyl] hexan) on patients with chronic obstructive pulmonary disease (COPD). The trial was carried out according to known methods and according to the “good clinical practices” (GCP), applicable regulatory requirements, and was based on written approval of the Independent Ethics Committee (IEC). Patients were enrolled in the trial based on inclusion and exclusion criteria known.
Patients were treated by inhalation of the disodium salt of the compound of formula (I) for 10 days. The unit dose strength for nebulization was 70 mg in 4 ml of 0.9% NaCl twice a day (bid). To investigate laboratory parameters the procedure of induced sputum (IS) was used to harvest cells and sputum supernatant for further analysis.
To investigate levels of Interleukin 8 (IL-8) in the sputum supernatant, sputum was frozen after collection. Once, all samples were collected, levels of IL-8 were analyzed by using a commercial available enzyme immunoassay for the in vitro quantification of human IL-8 in biological fluids. IL-8 sample concentrations were determined employing calibration curves.

Regarding `O=C(O)Cc1cccc(-c2cc(CCCCCCc3ccc(O[C@H]4O[C@H](CO)[C@@H](O)[C@H](O)[C@@H]4O)c(-c4cccc(CC(=O)O)c4)c3)ccc2O[C@H]2O[C@H](CO)[C@@H](O)[C@H](O)[C@@H]2O)c1` [compound of formula (I), 1,6-Bis [3-(3-carboxymethylphenyl)-4-(2-α-D-mannopyranosyloxy)-phenyl] hexane], the “median value of levels of IL8 in sputum supernatant after treatment” value (COPD patients, induced sputum supernatant, after inhalation of disodium salt 70 mg in 4 ml 0.9% NaCl bid for 10 days, Mann-Whitney Rank Sum Test p=0.031 vs before) amounted to 4985 pg/mL. Moreover, the “median value of levels of IL8 in sputum supernatant before treatment” value (COPD patients, induced sputum supernatant, baseline before inhalation treatment) was 15419 pg/mL. The “change of the IL-8 medians” value (after vs before treatment, inhalation 70 mg bid for 10 days, statistically significant (p=0.031) and clinically relevant) was −68%.
